Source: ChEMBL document CHEMBL1201862, “PubChem BioAssay data set” (2004)
Values belong to the compound of their own block, whether it stands above or below them. Activity calls are given as the source filed them.

How the values were obtained:
[1] = viability loss in THP-1 monocytes – THP-1 cells, cytotoxicity control for Vif-APOBEC3G degradation inhibitor project, dose response (AID 1117359); type: functional; conditions: THP-1
Protein skinhead-1 = target: T1, Protein skinhead-1 (Caenorhabditis elegans, UniProt P34707); type: functional
T1 sequence (P34707 whole entry): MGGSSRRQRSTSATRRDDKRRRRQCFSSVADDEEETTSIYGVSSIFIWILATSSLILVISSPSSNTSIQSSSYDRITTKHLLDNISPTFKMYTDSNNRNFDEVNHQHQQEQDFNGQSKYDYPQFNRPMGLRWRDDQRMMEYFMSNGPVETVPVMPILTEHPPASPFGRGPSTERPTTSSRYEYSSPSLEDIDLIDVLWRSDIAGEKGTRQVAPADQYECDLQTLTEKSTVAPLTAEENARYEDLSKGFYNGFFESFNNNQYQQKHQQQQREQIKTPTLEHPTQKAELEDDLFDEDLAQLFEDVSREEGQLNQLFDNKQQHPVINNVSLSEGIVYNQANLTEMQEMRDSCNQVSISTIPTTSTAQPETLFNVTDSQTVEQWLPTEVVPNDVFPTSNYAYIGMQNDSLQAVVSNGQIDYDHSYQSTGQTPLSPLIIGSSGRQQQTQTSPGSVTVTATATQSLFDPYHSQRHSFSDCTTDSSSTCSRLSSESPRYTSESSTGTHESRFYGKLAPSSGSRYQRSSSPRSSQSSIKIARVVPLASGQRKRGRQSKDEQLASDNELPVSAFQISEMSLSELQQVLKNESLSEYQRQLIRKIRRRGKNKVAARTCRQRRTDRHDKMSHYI

[2] = target: T2, Oxysterols receptor LXR-beta (Homo sapiens, UniProt P55055); type: functional, cell-based;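 further: Cell-based luminescence dose-response assay of agonist activity at LXR, run as a confirmatory counterscreen to a daf-12 agonist screen; HEK293 cells with Gal4-LXR fusion and GAL4-driven luciferase reporter; agonist potency from rising luciferase signal of a Gal4-LXR reporter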
T2 sequence (P55055 whole entry): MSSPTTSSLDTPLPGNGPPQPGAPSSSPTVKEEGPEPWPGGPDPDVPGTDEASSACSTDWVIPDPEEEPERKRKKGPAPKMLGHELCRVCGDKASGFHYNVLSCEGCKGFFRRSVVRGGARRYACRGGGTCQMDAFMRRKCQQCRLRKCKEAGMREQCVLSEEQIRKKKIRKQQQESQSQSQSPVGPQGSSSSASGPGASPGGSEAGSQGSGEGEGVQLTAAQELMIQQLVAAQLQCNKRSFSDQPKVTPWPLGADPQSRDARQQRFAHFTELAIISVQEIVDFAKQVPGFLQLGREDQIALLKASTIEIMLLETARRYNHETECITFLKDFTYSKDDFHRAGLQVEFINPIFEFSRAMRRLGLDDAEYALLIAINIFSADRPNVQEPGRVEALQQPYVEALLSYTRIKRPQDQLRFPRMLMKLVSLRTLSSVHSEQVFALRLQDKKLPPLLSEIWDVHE

cells [3] = test: cells
cells [4] = type: functional, cell-based
cells [5] = type: functional, cell-based; remark: listed apart in the source
[6] = target: T3, Aryl hydrocarbon receptor (Homo sapiens, UniProt P35869); test: Luminescence-based cell-based high throughput dose response assay for activators of the Aryl Hydrocarbon Receptor (AHR). [Related pubchem assays: 2796 (Primary screen (AHR activators in singlicate)), 2845 (Confirmation screen (AHR activators in triplicate)), 434939 (Counterscreen (PXR activators in triplicate)), 2804 (Summary (AHR activators))]; type: ADME
T3 sequence (P35869 whole entry): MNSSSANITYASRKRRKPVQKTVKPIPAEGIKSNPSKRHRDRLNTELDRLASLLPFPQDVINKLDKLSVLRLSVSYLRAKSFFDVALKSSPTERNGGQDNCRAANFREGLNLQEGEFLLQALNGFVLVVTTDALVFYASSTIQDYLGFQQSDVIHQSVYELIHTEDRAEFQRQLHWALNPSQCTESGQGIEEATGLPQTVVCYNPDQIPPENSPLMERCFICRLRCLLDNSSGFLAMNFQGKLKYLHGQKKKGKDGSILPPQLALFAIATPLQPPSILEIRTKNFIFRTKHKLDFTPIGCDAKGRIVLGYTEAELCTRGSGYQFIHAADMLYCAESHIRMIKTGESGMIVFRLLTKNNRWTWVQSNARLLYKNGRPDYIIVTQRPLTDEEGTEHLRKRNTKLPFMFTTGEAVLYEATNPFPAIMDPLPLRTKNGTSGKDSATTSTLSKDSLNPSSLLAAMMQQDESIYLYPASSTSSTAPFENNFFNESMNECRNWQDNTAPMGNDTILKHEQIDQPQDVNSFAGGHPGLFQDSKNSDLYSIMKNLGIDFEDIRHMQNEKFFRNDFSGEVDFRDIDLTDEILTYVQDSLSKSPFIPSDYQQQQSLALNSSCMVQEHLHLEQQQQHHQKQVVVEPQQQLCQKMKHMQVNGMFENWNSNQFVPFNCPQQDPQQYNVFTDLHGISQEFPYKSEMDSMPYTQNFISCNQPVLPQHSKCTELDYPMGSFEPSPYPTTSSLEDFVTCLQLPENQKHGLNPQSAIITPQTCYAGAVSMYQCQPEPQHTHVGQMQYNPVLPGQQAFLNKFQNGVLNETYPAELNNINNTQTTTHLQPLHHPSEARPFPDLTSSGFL

NADPH oxidase 1 = target: T4, NADPH oxidase 1 (Homo sapiens, UniProt Q9Y5S8); type: functional, cell-based;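 further: Cell-based assay with luminescence read-out, IC50 derived from inhibitor dose-response curves; intracellular ROS from endogenous NOX1 in intact HT29 colon cancer cells; potency of inhibitors that lower the ROS luminescence signal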
T4 sequence (Q9Y5S8 whole entry): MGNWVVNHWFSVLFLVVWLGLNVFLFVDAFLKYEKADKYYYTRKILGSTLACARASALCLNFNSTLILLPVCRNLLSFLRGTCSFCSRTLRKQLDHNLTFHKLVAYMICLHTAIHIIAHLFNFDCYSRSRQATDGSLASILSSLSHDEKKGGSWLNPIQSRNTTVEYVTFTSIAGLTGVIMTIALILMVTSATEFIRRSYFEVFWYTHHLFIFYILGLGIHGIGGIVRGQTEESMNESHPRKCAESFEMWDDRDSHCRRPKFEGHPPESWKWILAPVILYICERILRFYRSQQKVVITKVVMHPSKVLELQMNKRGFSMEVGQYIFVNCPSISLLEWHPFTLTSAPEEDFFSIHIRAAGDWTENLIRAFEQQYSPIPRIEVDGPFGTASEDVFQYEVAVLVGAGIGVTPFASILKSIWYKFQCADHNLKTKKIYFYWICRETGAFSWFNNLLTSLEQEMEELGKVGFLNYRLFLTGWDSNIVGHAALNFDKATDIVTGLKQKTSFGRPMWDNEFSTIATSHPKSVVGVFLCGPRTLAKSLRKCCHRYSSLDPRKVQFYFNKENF

[7] = target: DNA dC->dU-editing enzyme APOBEC-3A (Homo sapiens, UniProt P31941); test: Dose Response confirmation of small molecule APOBEC3A DNA Deaminase Inhibitors via a fluorescence-based single-stranded DNA deaminase assay. [Related pubchem assays (depositor defined):AID493011, AID493024]; type: functional
Sequence of DNA dC->dU-editing enzyme APOBEC-3A (P31941 whole entry): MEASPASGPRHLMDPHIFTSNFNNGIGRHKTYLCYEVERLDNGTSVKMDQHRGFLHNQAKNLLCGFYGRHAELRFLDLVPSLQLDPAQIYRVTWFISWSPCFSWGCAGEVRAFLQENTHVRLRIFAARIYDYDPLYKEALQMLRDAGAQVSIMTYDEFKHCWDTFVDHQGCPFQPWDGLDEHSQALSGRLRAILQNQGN

[8] = target: DNA dC->dU-editing enzyme APOBEC-3G (Homo sapiens, UniProt Q9HC16); type: functional;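 further: Dose-response counterscreen measuring inhibition of APOBEC3G DNA deaminase activity, run while confirming APOBEC3A inhibitors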
Sequence of DNA dC->dU-editing enzyme APOBEC-3G (Q9HC16 whole entry): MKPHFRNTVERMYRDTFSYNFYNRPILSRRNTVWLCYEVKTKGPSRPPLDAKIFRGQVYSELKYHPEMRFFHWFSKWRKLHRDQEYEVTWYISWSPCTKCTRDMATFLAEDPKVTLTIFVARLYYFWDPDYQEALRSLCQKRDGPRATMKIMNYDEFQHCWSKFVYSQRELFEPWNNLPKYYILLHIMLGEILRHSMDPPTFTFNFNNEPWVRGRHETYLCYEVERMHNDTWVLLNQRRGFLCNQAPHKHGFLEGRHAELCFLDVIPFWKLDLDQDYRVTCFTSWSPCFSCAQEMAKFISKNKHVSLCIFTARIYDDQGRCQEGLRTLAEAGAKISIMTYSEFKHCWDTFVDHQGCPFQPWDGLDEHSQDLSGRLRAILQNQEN

Compound: NC(=O)c1ccccc1NC(=O)/C=C/c1ccc(Cl)cc1
CC50 [1]: > 40 µM (active)

Compound: Fc1cccc(F)c1/C=C/c1ccc2ccccc2n1
IC50 (Protein skinhead-1): 36.8 µM (active)
EC50 [2]: > 67.5 µM (inactive)
EC50 (cells [3]): > 67.5 µM (inactive)

Compound: COc1cc2ccccc2cc1C(=O)Nc1ccc(C)cc1
EC50 (cells [4]): > 350 µM (not active)
EC50 (cells [5]): 29.2 µM (active)
EC50 [6]: 0.394 µM (active)

IC50 (NADPH oxidase 1): 0.24 µM (active)
Compound: Fc1ccc2c(c1)Sc1ccccc1N2

Compound: O=C(NCCC1CCCCN1S(=O)(=O)c1ccc(F)cc1)C(=O)NCc1ccccn1 (configuration not stated)
CC50 [1]: > 40 µM (active)

Compound: C#CCn1cc(/C=N/NC(=O)COc2cccc3cccnc23)c2ccccc21
EC50 [6]: > 0.377 µM (active)
IC50 [7]: > 100 µM (inactive)
IC50 [8]: > 100 µM (inactive)
